In patent publication EP4714938A1, “HDAC1/2 SELECTIVE INHIBITOR AND USE THEREOF” (Wigen Biomedicine Technology (Shanghai) Co., Ltd., priority 2023, dated 2024):
Read-outs that look alike come from different tables or passages of the source.

Assays:
HDAC1 = HDAC1 (Homo sapiens, UniProt Q13547); assay: HDAC enzyme inhibitory activity, FRET method; assay type: biochemical
Description: (§1) The compounds of the present disclosure were assayed for enzyme inhibitory activity against various subtypes of HDAC enzymes by the FRET method. The various subtypes of HDAC enzymes were obtained either through purification or direct purchase of assay kits.
(§2) The specific method was as follows: The enzyme was added to a 384-well plate, and a reaction buffer was added to the control well. Serially diluted DMSO sample solutions were added to the reaction wells, and the plate was incubated at room temperature for 15 min. Then a chromogenic agent was added to stop the reaction, and fluorescence was generated. The fluorescence intensity was measured using an EnVision multi-label microplate reader (excitation: 355 nm, emission: 460 nm). The endpoint value was read after the color development reached stability. The inhibition IC50 of the compounds was calculated using GraphPad Prism4 software relative to DMSO.

HDAC2 = HDAC2 (Homo sapiens, UniProt Q92769); assay: HDAC enzyme inhibitory activity, FRET method; assay type: biochemical
Description: as §1, §2

HDAC4 = HDAC4 (Homo sapiens, UniProt P56524); assay: HDAC enzyme inhibitory activity, FRET method; assay type: biochemical; conditions: Table 6; read-out: IC50 HDAC subtype 4
Description: as §1, §2

HDAC5 = HDAC5 (Homo sapiens, UniProt Q9UQL6); assay: HDAC enzyme inhibitory activity, FRET method; assay type: biochemical; conditions: Table 6; read-out: IC50 HDAC subtype 5
Description: as §1, §2

HDAC8 = molecular target: T1, HDAC8 (Homo sapiens, UniProt Q9BY41); assay: HDAC enzyme inhibitory activity, FRET method; assay type: biochemical; conditions: Table 6; read-out: IC50 HDAC subtype 8
T1 sequence (Q9BY41 1-377): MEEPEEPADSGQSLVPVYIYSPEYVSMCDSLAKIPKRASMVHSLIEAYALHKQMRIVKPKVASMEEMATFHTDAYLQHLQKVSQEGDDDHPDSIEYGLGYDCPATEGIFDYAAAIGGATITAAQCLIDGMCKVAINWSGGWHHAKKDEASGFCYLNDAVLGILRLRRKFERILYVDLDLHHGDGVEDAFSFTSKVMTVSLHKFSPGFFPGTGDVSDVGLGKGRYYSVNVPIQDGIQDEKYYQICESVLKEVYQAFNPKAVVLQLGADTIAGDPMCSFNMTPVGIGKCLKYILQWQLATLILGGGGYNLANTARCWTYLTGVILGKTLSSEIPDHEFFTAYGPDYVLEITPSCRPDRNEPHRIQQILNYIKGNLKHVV
Description: as §1, §2

Acetyl lysine = assay: Intracellular acetyl lysine level by ELISA in HeLa cells; assay type: cell-based; conditions: 24 h of treatment
Description: HeLa cells were seeded into a 96-well plate at 20000 cells/well. After overnight adherence culture, the serially diluted compound was added. After 24 h of treatment, intracellular levels of acetyl lysine and H3K 27 acetyl lysine were quantified by ELISA. Table 8. Effect of compound of the present disclosure on levels of acetyl lysine and H3K 27 acetyl lysine

[1] = Stability in liver microsomes; assay type: in vitro ADME; conditions: for half-life at 1 µM: 1 µM compound, 37 °C, NADPH regeneration system
Description: After the 1 µM compound was individually incubated at 37 °C for various durations with […] liver microsomes from humans, monkeys, beagles, rats, or mice in the presence of an NADPH regeneration system, LC-MS-MS was used to analyze the remaining amount of the compound, and T1/2 was calculated. Table 10. Evaluation results of stability of compounds of the present disclosure in human and mouse liver microsomes

[2] = test system: Mouse colon cancer MC38 cells; conditions: MC-38
Description: Female C57BL6N mice (aged 6 weeks, 18-22 g) were provided by Vital River Laboratory Animal Technology Co., Ltd. (China) and used one week after quarantine and acclimation. All animals were kept in a room at 23±2 °C with a relative humidity of 50±5%, artificial lighting was provided from 08:00 to 20:00 every day, and the air was exchanged 13-18 times per hour.
Mouse colon cancer MC38 cells were cultured conventionally in 1640 medium containing 10% fetal bovine serum in an incubator at 37 °C with 5% CO2. After being subcultured, the cells were collected when they reached the desired amount. The C57BL6N mice were subcutaneously injected with 2 × 10^6 MC38 cells on the right side to form tumors. After the tumors grew to about 100 mm^3, the animals were randomly grouped for administration. Tumor volumes were measured with a caliper on day 3, day 7, day 10, day 14, day 17, and day 21 after the administration. The ability of the compounds to inhibit tumor growth was evaluated according to the tumor growth inhibition rate (TGI) = 1 - (tumor volume on day 28 in treatment group - tumor volume on day 1 in treatment group)/(tumor volume on day 28 in control group - tumor volume on day 1 in control group). The toxicity of the compounds was evaluated according to the body weight and state of the mice.
The groups were as follows: 1) solvent control group; 2) PD-1+Reg group; 3) Compound 1 group; 4) Reference Compound group; 5) compound 1 (10mg/kg) and PD-1+Reg Combination group; 6) compound 1 (30mg/kg) and PD-1+Reg Combination group; 7) compound 1 (90mg/kg) and PD-1+Reg Combination group; 8) Reference Compound (10mg/kg) and PD-1+Reg Combination group; 9) Reference Compound (30mg/kg) and PD-1+Reg Combination group; 10) Reference Compound (90mg/kg) and PD-1+Reg Combination group, with 6 mice per group.
Reg represents Regorafenib PD-1 represents an anti-PD-1 antibody; IV represents administration via intravenous injection; PO represents oral administration; QD represents once-daily administration; QW represents once-weekly administration; CR represents complete remission (complete disappearance of the tumor after the dosing cycle is completed); PR represents partial response (tumor volume reduction exceeding 30% relative to the initial volume upon completion of the administration cycle); SD represents stable disease (tumor volume reduction or growth not exceeding 30% relative to the initial volume upon completion of the administration cycle); Died represents mouse died before the dosing cycle is completed; Administration period* is once daily (QD) for 10 consecutive days, followed by a 16-day off-treatment period; the once-weekly (QW) regimen is administered only on Day 1 and Day 8.

[3] = test system: Mouse colon cancer CT-26 cells; conditions: for Tumor response, number of mice (CR/PR/SD): 6 mice per group; for TGI(%): QD for 14 consecutive days, PO
Description: Female BALB/c mice (aged 6 weeks, 18-22 g) were provided by Vital River Laboratory Animal Technology Co., Ltd. (China) and used one week after quarantine and acclimation. All animals were kept in a room at 23±2 °C with a relative humidity of 50±5%, artificial lighting was provided from 08:00 to 20:00 every day, and the air was exchanged 13-18 times per hour.
Mouse colon cancer CT-26 cells were cultured conventionally in 1640 medium containing 10% fetal bovine serum in an incubator at 37 °C with 5% CO2. After being subcultured, the cells were collected when they reached the desired amount. The BALB/c mice were subcutaneously injected with 2 × 10^5 CT-26 cells on the right side to form tumors. After the tumors grew to about 100 mm^3, the animals were randomly grouped for administration. Tumor volumes were measured with a caliper on day 3, day 7, day 10, day 14, day 17, and day 21 after the administration. The ability of the compounds to inhibit tumor growth was evaluated according to the tumor growth inhibition rate (TGI) = 1 - (tumor volume on day 28 in treatment group - tumor volume on day 1 in treatment group)/(tumor volume on day 28 in control group - tumor volume on day 1 in control group). The toxicity of the compounds was evaluated according to the body weight and state of the mice.

HDAC10 = molecular target: T2, HDAC10 (Homo sapiens, UniProt Q969S8); assay: biochemical
T2 sequence (Q969S8 1-669): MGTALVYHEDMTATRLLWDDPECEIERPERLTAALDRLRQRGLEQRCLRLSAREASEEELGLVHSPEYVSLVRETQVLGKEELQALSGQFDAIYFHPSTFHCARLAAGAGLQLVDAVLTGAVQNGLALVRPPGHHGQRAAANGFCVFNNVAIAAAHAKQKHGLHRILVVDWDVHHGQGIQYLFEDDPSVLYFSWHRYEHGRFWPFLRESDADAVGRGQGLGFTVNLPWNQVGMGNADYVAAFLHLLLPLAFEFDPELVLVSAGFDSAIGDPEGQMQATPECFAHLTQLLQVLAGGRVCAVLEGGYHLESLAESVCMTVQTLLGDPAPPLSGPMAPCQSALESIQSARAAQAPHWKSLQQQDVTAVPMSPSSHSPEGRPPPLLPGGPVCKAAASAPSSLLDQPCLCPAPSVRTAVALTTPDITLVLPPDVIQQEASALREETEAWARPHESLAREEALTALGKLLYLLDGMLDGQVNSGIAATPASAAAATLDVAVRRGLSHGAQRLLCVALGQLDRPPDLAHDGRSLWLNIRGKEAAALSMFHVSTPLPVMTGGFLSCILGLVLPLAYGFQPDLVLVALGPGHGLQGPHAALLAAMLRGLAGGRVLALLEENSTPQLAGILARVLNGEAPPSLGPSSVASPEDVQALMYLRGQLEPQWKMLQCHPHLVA
Description: as §1, §2

Chain of HDAC1 (Q13547 whole entry, species assumed): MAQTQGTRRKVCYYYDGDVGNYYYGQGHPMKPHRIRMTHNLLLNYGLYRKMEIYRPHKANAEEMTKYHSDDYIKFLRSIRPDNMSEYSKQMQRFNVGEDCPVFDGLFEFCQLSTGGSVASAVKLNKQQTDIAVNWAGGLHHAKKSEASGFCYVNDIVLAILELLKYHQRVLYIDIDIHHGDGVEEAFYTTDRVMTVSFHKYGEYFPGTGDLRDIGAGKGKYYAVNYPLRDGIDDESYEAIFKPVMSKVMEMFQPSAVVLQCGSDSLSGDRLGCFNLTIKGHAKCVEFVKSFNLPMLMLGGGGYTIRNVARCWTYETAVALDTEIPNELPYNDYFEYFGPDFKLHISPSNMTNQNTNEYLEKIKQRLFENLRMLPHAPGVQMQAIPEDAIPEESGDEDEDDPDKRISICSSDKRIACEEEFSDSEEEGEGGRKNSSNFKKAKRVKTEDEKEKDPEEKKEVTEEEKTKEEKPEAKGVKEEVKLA
Chain of HDAC2 (Q92769 whole entry, species assumed): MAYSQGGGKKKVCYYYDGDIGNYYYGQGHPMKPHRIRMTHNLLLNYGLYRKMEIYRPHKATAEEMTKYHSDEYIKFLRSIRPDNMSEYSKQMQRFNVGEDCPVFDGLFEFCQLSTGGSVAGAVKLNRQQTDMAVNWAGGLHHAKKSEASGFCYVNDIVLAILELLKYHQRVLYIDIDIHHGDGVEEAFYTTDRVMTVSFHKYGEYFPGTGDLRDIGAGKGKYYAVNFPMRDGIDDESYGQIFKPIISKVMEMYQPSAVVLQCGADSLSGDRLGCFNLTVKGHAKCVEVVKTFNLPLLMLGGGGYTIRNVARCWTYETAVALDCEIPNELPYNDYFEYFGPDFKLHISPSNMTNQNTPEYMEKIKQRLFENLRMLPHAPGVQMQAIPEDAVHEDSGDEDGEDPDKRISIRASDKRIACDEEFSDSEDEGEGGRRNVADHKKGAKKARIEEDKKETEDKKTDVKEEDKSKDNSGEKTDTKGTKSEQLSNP
Chain of HDAC5 (Q9UQL6 whole entry, species assumed): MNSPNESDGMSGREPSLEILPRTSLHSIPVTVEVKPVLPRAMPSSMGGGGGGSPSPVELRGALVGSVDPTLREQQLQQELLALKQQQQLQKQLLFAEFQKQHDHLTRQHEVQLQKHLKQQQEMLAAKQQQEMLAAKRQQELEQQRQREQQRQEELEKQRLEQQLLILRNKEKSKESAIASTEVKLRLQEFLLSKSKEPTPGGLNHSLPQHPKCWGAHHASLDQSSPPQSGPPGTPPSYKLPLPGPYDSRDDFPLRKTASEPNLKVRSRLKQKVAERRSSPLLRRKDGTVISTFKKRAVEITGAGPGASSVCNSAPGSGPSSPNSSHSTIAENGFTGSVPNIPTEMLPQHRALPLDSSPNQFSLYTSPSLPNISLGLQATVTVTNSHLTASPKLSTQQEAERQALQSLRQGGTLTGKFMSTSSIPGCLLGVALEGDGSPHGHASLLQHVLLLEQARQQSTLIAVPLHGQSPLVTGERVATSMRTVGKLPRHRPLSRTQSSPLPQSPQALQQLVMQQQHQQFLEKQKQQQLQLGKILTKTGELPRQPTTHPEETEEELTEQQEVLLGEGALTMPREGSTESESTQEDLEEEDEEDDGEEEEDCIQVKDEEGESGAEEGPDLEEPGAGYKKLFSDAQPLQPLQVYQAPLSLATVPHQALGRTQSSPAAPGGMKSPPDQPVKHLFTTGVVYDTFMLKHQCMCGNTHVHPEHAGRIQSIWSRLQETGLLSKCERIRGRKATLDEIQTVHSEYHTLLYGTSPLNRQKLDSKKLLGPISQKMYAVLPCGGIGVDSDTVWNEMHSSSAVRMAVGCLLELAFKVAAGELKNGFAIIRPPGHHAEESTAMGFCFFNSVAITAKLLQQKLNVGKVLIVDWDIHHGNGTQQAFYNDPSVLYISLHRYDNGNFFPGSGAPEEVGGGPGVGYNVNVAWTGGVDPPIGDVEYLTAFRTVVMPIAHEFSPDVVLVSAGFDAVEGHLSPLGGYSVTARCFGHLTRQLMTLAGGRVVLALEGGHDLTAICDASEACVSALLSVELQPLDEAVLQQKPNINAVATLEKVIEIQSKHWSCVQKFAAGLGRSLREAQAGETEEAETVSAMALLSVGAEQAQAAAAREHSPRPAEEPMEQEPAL
Chain of HDAC4 (P56524 whole entry, species assumed): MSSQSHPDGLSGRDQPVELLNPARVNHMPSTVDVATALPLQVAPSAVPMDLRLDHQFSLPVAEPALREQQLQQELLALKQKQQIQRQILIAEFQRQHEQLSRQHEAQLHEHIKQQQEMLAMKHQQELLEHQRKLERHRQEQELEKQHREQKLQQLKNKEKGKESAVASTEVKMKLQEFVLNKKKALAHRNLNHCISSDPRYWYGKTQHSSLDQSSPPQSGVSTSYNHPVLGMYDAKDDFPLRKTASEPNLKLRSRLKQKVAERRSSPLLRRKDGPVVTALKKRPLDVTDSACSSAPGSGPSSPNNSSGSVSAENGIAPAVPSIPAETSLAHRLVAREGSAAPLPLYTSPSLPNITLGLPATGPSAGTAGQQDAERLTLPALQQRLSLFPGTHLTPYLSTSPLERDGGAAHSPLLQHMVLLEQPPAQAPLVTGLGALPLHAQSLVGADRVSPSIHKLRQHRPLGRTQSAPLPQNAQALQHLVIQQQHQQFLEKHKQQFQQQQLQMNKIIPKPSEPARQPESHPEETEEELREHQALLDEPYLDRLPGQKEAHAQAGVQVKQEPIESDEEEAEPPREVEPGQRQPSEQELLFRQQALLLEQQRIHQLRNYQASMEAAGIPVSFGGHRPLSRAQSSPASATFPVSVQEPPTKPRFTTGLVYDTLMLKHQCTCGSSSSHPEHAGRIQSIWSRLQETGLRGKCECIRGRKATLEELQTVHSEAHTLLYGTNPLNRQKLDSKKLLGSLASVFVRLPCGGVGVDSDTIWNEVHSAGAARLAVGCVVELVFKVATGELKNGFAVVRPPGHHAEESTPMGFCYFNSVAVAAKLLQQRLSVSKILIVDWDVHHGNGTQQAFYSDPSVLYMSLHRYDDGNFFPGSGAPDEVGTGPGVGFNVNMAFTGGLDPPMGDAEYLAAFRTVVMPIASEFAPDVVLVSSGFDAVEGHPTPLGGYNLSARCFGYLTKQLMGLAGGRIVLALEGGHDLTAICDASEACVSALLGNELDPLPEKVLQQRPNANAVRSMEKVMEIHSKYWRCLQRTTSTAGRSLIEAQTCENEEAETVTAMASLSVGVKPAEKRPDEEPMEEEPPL

CS(C)(=O)=Nc1ccc(C(=O)Nc2cc(-c3ccc(F)cc3)ccc2N)cc1 [Compound 1, N-(4-Amino-4'-fluoro-[1,1'-biphenyl]-3-yl)-4-((dimethyl(oxo)-1^λ-6-sulfaneylidene)amino)benzamide]
IC50 (HDAC1; Table 4, read-out: IC50 HDAC1): < 500 nM | IC50 (HDAC1; Table 5, read-out: IC50 HDAC1): < 30 nM | IC50 (HDAC1; Table 6, read-out: IC50 HDAC subtype 1): 26.5 nM | IC50 (HDAC2; Table 4, read-out: IC50 HDAC2): < 500 nM | IC50 (HDAC2; Table 5, read-out: IC50 HDAC2): 30 to 300 nM | IC50 (HDAC2; Table 6, read-out: IC50 HDAC subtype 2): 141 nM | IC50 (HDAC4): > 30000 nM | IC50 (HDAC5): > 30000 nM | IC50 (HDAC8): > 30000 nM | Acetyl lysine Maximum (%) (Acetyl lysine): 500% | Acetyl lysine Minimum effective concentration (Acetyl lysine): 16 nM | CLint scaled at 1 µM ([1]; Human liver microsomes): 17.4 mL/min/kg | Clliver ([1]; Human liver microsomes): 9.45 mL/min/kg | half-life at 1 µM ([1]; Human liver microsomes): 1.67 h | CLint scaled at 1 µM ([1]; Mouse liver microsomes): 5.55 mL/min/kg | Clliver ([1]; Mouse liver microsomes): 5.23 mL/min/kg | half-life at 1 µM ([1]; Mouse liver microsomes): 16.4 h | Change in body weight(%) ([2]; monotherapy 90 mg/kg QD PO): 11.08 ± 1.08% | Tumor response, number of mice (CR/PR/SD) ([2]; monotherapy 90 mg/kg QD PO, CR complete remission, PR partial response, SD stable disease, 6 mice per group): 5CR | TGI(%) ([2]; monotherapy 90 mg/kg, QD for 10 consecutive days, PO): 100.54% | complete tumor regression, % of mice ([2]; monotherapy group (5/6)): 83.3% | Change in body weight(%) ([3]; monotherapy 30 mg/kg QD PO): 1.13+3.79% | Tumor response, number of mice (CR/PR/SD) ([3]; monotherapy 30 mg/kg QD PO): 1PR | TGI(%) ([3]; monotherapy 30 mg/kg): 38.57% | Change in body weight(%) ([3]; monotherapy 90 mg/kg QD PO): -10.53+7.1% | Tumor response, number of mice (CR/PR/SD) ([3]; monotherapy 90 mg/kg QD PO): 1PR+1SD | TGI(%) ([3]; monotherapy 90 mg/kg): 88.35% | IC50 (HDAC10): 22.2 nM
